Patent US7611832B2, “Human G protein-coupled receptor and modulators thereof for the treatment of ischemic heart disease and congestive heart failure” (Arena Pharmaceuticals, Inc., priority 2002, dated 2009)

What was measured:
[1] = test system: RUP41 transcript in neonatal rat ventricular myocytes (NRVMs); test: RT-PCR of RUP41 transcript in NRVMs treated with hypertrophic agents; type: cell-based; conditions: 24 hours after addition to media; phenylephrine 100 μM, newborn calf serum 10%
Experimental: Total RNA isolated from NRVMs as described above was used as a template for generation of reverse transcribed DNA (RT-DNA) using the RT for PCR kit (Becton Dickenson) according to manufacturers instructions. RUP41 expression was detected in RT-DNA samples by PCR. PCR conditions were 96° C. for 2 min, followed by 30 cycles of 96° C. for 30 sec, 55° C. for 30 sec, and 72° C. for 2 min, followed by 72° C. for 10 min. 20 μl of the reaction was loaded onto 1.5% agarose gel to analyze the RT-PCR products.

RUP41 mRNA in NRVMs = test: Northern blot of RUP41 mRNA in NRVMs treated with hypertrophic agents; conditions: 24 hour treatment; PE 100 μM, PMA 100 nM, PGF2α 1 μM, NCS 10%

Compound	RUP41 transcript levels (RT-PCR) [1]	RUP41 mRNA expression (Northern blot) (RUP41 mRNA in NRVMs)
CNC[C@H](O)c1cccc(O)c1 [phenylephrine]	drop dramatically	decreased level
prostaglandin F2α		decreased level
CCCCCCCCCCCCCC(=O)O[C@@H]1[C@@H](C)[C@@]2(O)[C@@H](C=C(CO)C[C@]3(O)C(=O)C(C)=C[C@@H]23)[C@@H]2C(C)(C)[C@]12OC(C)=O [phorbol 12-myristate 13-acetate]		decreased level
